Drawing on ChEMBL document CHEMBL1132102, “Dysidiolide and related gamma-hydroxy butenolide compounds as inhibitors of the protein tyrosine phosphatase, CDC25” (Bioorg Med Chem Lett, 1999), this text covers IC50 for 1 compound.

In assay [1] the target is T1, M-phase inducer phosphatase 2 (Homo sapiens, UniProt P30305).
T1 sequence (P30305 whole entry): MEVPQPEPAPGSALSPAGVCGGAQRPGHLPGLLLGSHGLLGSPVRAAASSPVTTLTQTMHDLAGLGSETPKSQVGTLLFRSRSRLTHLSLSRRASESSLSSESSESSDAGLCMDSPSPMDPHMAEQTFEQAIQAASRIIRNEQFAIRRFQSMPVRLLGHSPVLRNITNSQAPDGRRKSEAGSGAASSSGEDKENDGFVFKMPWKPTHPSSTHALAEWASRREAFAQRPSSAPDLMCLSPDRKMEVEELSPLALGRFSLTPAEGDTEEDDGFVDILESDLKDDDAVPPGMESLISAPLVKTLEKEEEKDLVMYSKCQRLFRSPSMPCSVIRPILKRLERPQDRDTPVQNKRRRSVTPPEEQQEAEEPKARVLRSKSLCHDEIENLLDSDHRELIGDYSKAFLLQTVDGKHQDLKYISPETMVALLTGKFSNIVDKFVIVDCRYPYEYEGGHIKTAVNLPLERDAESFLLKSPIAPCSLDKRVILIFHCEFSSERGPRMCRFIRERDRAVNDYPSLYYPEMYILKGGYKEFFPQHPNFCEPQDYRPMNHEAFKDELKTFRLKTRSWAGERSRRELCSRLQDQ
Put plainly: In vitro inhibitory activity against human Cell division cycle 25B.

Assay [2] deals with T2, M-phase inducer phosphatase 3 (Homo sapiens, UniProt P30307).
T2 sequence (P30307 whole entry): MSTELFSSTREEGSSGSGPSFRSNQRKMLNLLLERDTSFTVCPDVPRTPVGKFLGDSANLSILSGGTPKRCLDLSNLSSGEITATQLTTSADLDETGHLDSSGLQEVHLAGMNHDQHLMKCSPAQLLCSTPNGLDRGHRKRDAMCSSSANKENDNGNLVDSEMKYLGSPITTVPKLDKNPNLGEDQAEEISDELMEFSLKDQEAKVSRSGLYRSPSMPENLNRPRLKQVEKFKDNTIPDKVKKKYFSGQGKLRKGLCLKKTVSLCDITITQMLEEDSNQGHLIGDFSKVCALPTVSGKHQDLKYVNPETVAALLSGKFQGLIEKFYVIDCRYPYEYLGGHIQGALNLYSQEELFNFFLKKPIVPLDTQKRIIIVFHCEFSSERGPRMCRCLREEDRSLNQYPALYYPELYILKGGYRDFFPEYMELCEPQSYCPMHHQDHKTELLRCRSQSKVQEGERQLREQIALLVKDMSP
Description: In vitro inhibitory activity against human Cell division cycle 25 degree C.

Where only a bound is given, the exact number is not on record here.

Usually IC50 stands for the concentration needed to halve the response being measured. In the case of `C=C(C)CCC[C@@]1(C)CCC[C@@]2(C)C1=CC[C@H](C)[C@]2(C)C[C@@H](O)C1=CC(=O)O[C@@H]1O` (stereo in doubt; form 2), the IC50 in assay [1] and in assay [2] was > 2000 µM throughout.
